The text below walks through data of ChEMBL document CHEMBL1201862, “PubChem BioAssay data set” (2004).

Some test systems named below: DMS-273; LXFL 529; DLD-1; HOP-18; XF498; SNB-78; KM-20L2; M19-MEL; RXF 631.
What all share (experiment): DTP human tumour cell line panel, 48 h

Usually GI50 stands for the concentration that inhibits growth by half.

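Compound exposure: 48 hours, 5 concentrations, 96-well plates. Here, GI50 denotes the concentration required for 50% inhibition of growth.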 Active and inactive are the calls of the source. No stated cut-off is given here; in the data, active = GI50 up to about 1.1 µM and inactive = higher.

Regarding `COc1cc2c(c(OC)c1OC)-c1ccc(SC)c(=O)cc1C(NC(=O)c1ccccc1)CC2` (centres undefined), the GI50 was < 0.01 µM (active) with DMS-273; < 0.01 µM (active) in the experiment with LXFL 529; < 0.01 µM (active) with DLD-1; 77.1 µM (inactive) in the experiment with HOP-18; < 0.0601 µM (active) with XF498; < 0.01 µM (active) in the experiment with SNB-78. Also, in the experiment with KM-20L2, the GI50 is < 0.01 µM (active).

In the case of `O=C1C=C(NCCc2ccccc2)c2ccccc2C1=O`, the GI50 in the experiment on DMS-273 was 2.77 µM (inactive); in the experiment with LXFL 529 it was 5.86 µM (inactive); in the experiment with M19-MEL, 0.276 µM (active); in the experiment on DLD-1 it was 6.03 µM (inactive); with HOP-18 it was 1.63 µM (inactive); with SNB-78, 16.6 µM (inactive). The GI50 with KM-20L2 is 6.95 µM (inactive).

Consider `N#Cc1ccccc1NC(=O)C(=O)C1NC(=S)NC1=O` (centres undefined), for which the GI50 in the experiment with LXFL 529 was > 100 µM (inactive); in the experiment with M19-MEL it was > 100 µM (inactive); in the experiment with DLD-1, > 100 µM (inactive); in the experiment on HOP-18 it was 46.6 µM (inactive); in the experiment with XF498 it was > 100 µM (inactive); in the experiment on KM-20L2, > 100 µM (inactive).

Turning to `CCn1c2c(c3ccccc31)[C@@H](c1ccc(Cl)cc1)CC1C(=O)N(c3ccccc3)C(=O)C21` (some centres undefined), the GI50 is > 100 µM (inactive) in the experiment on DMS-273; > 100 µM (inactive) in the experiment with LXFL 529; > 100 µM (inactive) in the experiment on M19-MEL; > 100 µM (inactive) in the experiment on DLD-1; > 100 µM (inactive) in the experiment on HOP-18; 64.6 µM (inactive) in the experiment on XF498. Besides, the figures for the GI50 in the experiment with SNB-78 and in the experiment with KM-20L2 were 26.4 µM (inactive) and > 100 µM (inactive), respectively.

Take `O=C(CC1(O)C(=O)Nc2ccccc21)c1ccc(Cl)c(Cl)c1` (centres undefined): the GI50 with DMS-273 is > 100 µM (inactive); in the experiment with LXFL 529, > 100 µM (inactive); in the experiment with M19-MEL, 77.4 µM (inactive); in the experiment with DLD-1, > 100 µM (inactive); with SNB-78 it was 97.3 µM (inactive); in the experiment with KM-20L2, > 100 µM (inactive).

On to `CC1=C(c2cc(C(=O)Nc3cc(C)ccc3C)nc(N)n2)Sc2ccccc2N1`, for which the GI50 with DMS-273, in the experiment with LXFL 529, in the experiment with RXF 631, in the experiment with M19-MEL, with DLD-1 and in the experiment on HOP-18 was > 100 µM (inactive) in each case. Moreover, the GI50 in the experiment with SNB-78 and with KM-20L2 was > 100 µM (inactive) each time.

For `C=CCc1cc(OC)c2c(c1)C(OC)CC(c1ccc(OC)c(OC)c1)O2` (centres undefined), the GI50 with DMS-273, with LXFL 529, with RXF 631, in the experiment with M19-MEL, in the experiment on DLD-1 and with XF498 was > 100 µM (inactive) throughout. Besides, the GI50 in the experiment on SNB-78 and in the experiment on KM-20L2 was > 100 µM (inactive) throughout.

In the case of `Cc1ccc([N+](=O)[O-])cc1NC(=O)/C(=N/NC(=S)NN)C1SC(=S)NC1=O` (centres undefined), the GI50 in the experiment on DMS-273, in the experiment with LXFL 529, with DLD-1, in the experiment with HOP-18, with XF498 and in the experiment on SNB-78 was > 100 µM (inactive) each time. Also, in the experiment on KM-20L2, the GI50 was > 100 µM (inactive).

As to `COC1=CC(=Nc2c(Cl)cc(Cl)cc2OC(=O)c2ccc([N+](=O)[O-])cc2)C=C(OC)C1=O`, the GI50 was 13.6 µM (inactive) with DMS-273; 5.78 µM (inactive) in the experiment on LXFL 529; 4.51 µM (inactive) in the experiment with RXF 631; 3.41 µM (inactive) in the experiment with M19-MEL; 12.4 µM (inactive) in the experiment on DLD-1; 8.39 µM (inactive) with XF498. Also, the GI50 was 23.3 µM (inactive) in the experiment on SNB-78 and 17.7 µM (inactive) in the experiment with KM-20L2.

For `CC1=NOC(=O)/C1=C/c1ccccc1O`, the GI50 in the experiment with DMS-273, in the experiment on LXFL 529, in the experiment on RXF 631, with M19-MEL, in the experiment with DLD-1 and in the experiment with HOP-18 was > 100 µM (inactive) throughout. The GI50 in the experiment on XF498, in the experiment on SNB-78 and in the experiment on KM-20L2 was > 100 µM (inactive) in each case.

On to `COC(=O)Nc1nc2cc(Br)ccc2[nH]1`, for which the GI50 in the experiment on DMS-273 was 16 µM (inactive); with LXFL 529 it was 47.2 µM (inactive); in the experiment with M19-MEL it was 28.8 µM (inactive); with DLD-1, 42.3 µM (inactive); in the experiment on HOP-18, 64.1 µM (inactive); in the experiment on XF498, 23.6 µM (inactive). For the same compound, the GI50 is 42.4 µM (inactive) with SNB-78 and 21.2 µM (inactive) in the experiment with KM-20L2.

Regarding `C/N=C1\CC2c3cc(OC)c(OC)cc3CCN2C2=C1C(=O)CC(C)(C)C2` (centres undefined), the GI50 in the experiment with DMS-273, with LXFL 529, with M19-MEL, in the experiment with DLD-1, in the experiment with SNB-78 and with KM-20L2 was > 100 µM (inactive) each time.

Turning to `C=CCOC(=O)C1CCC(=O)N1C(=O)C(Cl)Cl` (centres undefined), the GI50 is > 100 µM (inactive) with DMS-273; > 100 µM (inactive) in the experiment with LXFL 529; > 100 µM (inactive) with M19-MEL; > 100 µM (inactive) in the experiment on DLD-1; > 100 µM (inactive) with HOP-18; 17.7 µM (inactive) in the experiment with XF498. Moreover, the GI50 in the experiment with SNB-78 and with KM-20L2 was > 100 µM (inactive) in each case.

As to `COc1c(C)cc2c(C(C)C)c(O)c(O)c(C=O)c2c1O`, the GI50 was 23 µM (inactive) in the experiment with DMS-273; 24.8 µM (inactive) in the experiment with LXFL 529; 26.5 µM (inactive) in the experiment with M19-MEL; 32.1 µM (inactive) in the experiment with DLD-1; 14.9 µM (inactive) with HOP-18; 39 µM (inactive) in the experiment with XF498. Besides, the GI50 was 27.9 µM (inactive) in the experiment with SNB-78 and 19.7 µM (inactive) with KM-20L2.

Take `COC(=O)c1c(OC(=O)c2ccccc2)noc1CC(=O)OC1C=CCCC1` (centres undefined): the GI50 was > 100 µM (inactive) with DMS-273; 58.7 µM (inactive) with LXFL 529; > 100 µM (inactive) in the experiment on DLD-1; > 100 µM (inactive) with HOP-18; > 100 µM (inactive) with SNB-78; > 100 µM (inactive) in the experiment with KM-20L2.

For `CCCCC(C(=O)CCC(=O)Nc1ccc(Cl)c(Cl)c1)C(=O)C(C)C` (centres undefined), the GI50 with DMS-273 was 52.4 µM (inactive); in the experiment on LXFL 529, 34.8 µM (inactive); in the experiment on M19-MEL it was > 100 µM (inactive); in the experiment on DLD-1, > 100 µM (inactive); with HOP-18 it was > 100 µM (inactive); in the experiment with SNB-78, > 100 µM (inactive). Also, the GI50 in the experiment on KM-20L2 was > 100 µM (inactive).

As to `Cc1ccn2c(c1)nc1nc3ccccc3nc12`, the GI50 in the experiment on DMS-273, in the experiment on LXFL 529, in the experiment on M19-MEL, in the experiment with DLD-1, with XF498 and in the experiment on SNB-78 was > 100 µM (inactive) throughout. Besides, the GI50 with KM-20L2 was > 100 µM (inactive).

For `NN/C(Cc1ccccc1)=N\NO`, the GI50 in the experiment on DMS-273 was > 100 µM (inactive); in the experiment on LXFL 529 it was 55.1 µM (inactive); in the experiment with RXF 631 it was 32.2 µM (inactive); with M19-MEL it was > 100 µM (inactive); in the experiment with DLD-1 it was > 100 µM (inactive); in the experiment with HOP-18 it was > 100 µM (inactive). For the same compound, the GI50 with KM-20L2 was 32.5 µM (inactive).

As for `CC[C@@H]1C[C@H]2CC3c4[nH]c5ccc(O)cc5c4CCN(C2)C31`, the GI50 in the experiment with DMS-273, in the experiment with LXFL 529, in the experiment on RXF 631, in the experiment on M19-MEL, with HOP-18 and in the experiment with XF498 was > 100 µM (inactive) in each case. The GI50 with SNB-78 and with KM-20L2 was > 100 µM (inactive) throughout.
